Experimental data reported in patent publication US10221459B2, “Compositions and methods of treating cancer harboring PIKC3A mutations” (Case Western Reserve University, priority 2014, dated 2019).

Legend:
[1] = system: HCT116 xenograft tumors; experiment: Xenograft study, HCT116 (parental cells); format: in vivo, mice; conditions: for tumor regression: alone or in combination; for combinational effect with AOA: drug combined with AOA (10 mg/kg), HCT116 xenograft
Excerpt: (§1) FIGS. 4(A-D) illustrate plots showing aminooxyacetate (AOA) inhibits xenograft tumor growth of PIK3CA mutant CRCs but not PIK3CA WT CRCs. (A-B) AOA inhibits growth of xenograft formed by PIK3CA mutant clones but not PIK3CA WT clones. (A) Clones derived from HCT116 cells; (B) Clones derived from DLD1. (C) AOA inhibits growth of xenograft tumors formed by four CRC cell lines harboring PIK3CA mutations. […] N=5 mice in each experimental group. Data are presented as mean±SEM.
FIGS. 10(A-B) illustrate plots showing AOA synergizes with 5-FU to inhibit growth of HCT116 xenograft tumors.
FIGS. 12(A-B) illustrate images and a plot showing the combination of CB-839 and 5-FU shrinks HCT116 xenograft tumors.
(§2) Animal experiments were approved by the Case Western Reserve University Animal Care and Use Committee. As described in, 3 million cells were injected subcutaneously into the flanks of 4 to 6-week-old female athymic nude mice. Mice were randomly assigned into treatment groups (5 mice/group). When average tumor volume reached 100 mm3, mice were treated with vehicle control, 5 mg/kg or 10 mg/kg of AOA every day per IP (intraperitoneal) injection. Tumor volumes were measured with an electronic caliper and calculated as length×width^2/2.

[2] = system: HCT116 PIK3CA mutant and WT clones; experiment: Growth inhibition in tissue culture, HCT116 PIK3CA mutant vs WT clones; format: cell-based; conditions: for sensitivity to growth inhibition, PIK3CA-/mut vs PIK3CA WT/- cells: HCT116, various doses
Excerpt: (§3) FIGS. 9(A-C) illustrate graphs and an immunoblot showing aminooxyacetate (AOA) inhibits PIK3CA mutant tumor growth. (A) IC50 of AOA in HCT116 and DLD1 PIK3CA WT and mutant clones. (B) Body weights of the mice with xenograft established from the indicated CRC cells before and after AOA treatment. N=5 mice in each group. (C) Western blot analyses of GPT2 protein levels in the indicated cell lines.
(§4) To test if PIK3CA mutations render cancer cell sensitive to these inhibitors, we treated PIK3CA-/mut, PIK3CA WT/-HCT116 and DLD1 colon cancer cells with various doses of EGCG and BPTES.

[3] = system: DLD1 PIK3CA mutant and WT clones; experiment: Growth inhibition in tissue culture, DLD1 PIK3CA mutant vs WT clones; format: cell-based; conditions: for sensitivity to growth inhibition, PIK3CA-/mut vs PIK3CA WT/- cells: DLD1, various doses
Excerpt: as §3, §4

[4] = system: HCT116 PIK3CA mutant clone xenograft; experiment: Xenograft study, HCT116 PIK3CA mutant clone; format: in vivo; conditions: HCT116 PIK3CA mutant clone in nude mice; AOA 5 or 10 mg/kg every day IP
Excerpt: as §1, §2

[5] = system: DLD1 PIK3CA mutant clone xenograft; experiment: Xenograft study, DLD1 PIK3CA mutant clone; format: in vivo; conditions: DLD1 PIK3CA mutant clone in nude mice; AOA 5 or 10 mg/kg every day IP
Excerpt: as §1, §2

[6] = system: HCT116 PIK3CA WT clone xenograft; experiment: Xenograft study, HCT116 PIK3CA WT clone; format: in vivo; conditions: isogenic HCT116 PIK3CA WT clone in nude mice; AOA every day IP
Excerpt: as §1, §2

[7] = system: DLD1 PIK3CA WT clone xenograft; experiment: Xenograft study, DLD1 PIK3CA WT clone; format: in vivo; conditions: isogenic DLD1 PIK3CA WT clone in nude mice; AOA every day IP
Excerpt: as §1, §2

[8] = system: DLD1 xenograft tumors; experiment: Xenograft study, DLD1 (parental cells); format: in vivo, mice; conditions: DLD1 parental cells (PIK3CA mutant); AOA every day IP
Excerpt: as §1, §2

[9] = system: RKO xenograft tumors; experiment: Xenograft study, RKO; format: in vivo, mice; conditions: RKO (PIK3CA mutant); AOA every day IP
Excerpt: as §1, §2

[10] = system: HT29 xenograft tumors; experiment: Xenograft study, HT29; format: in vivo, mice; conditions: HT29 (PIK3CA mutant); AOA every day IP
Excerpt: as §1, §2

[11] = system: SW480 xenograft tumors; experiment: Xenograft study, SW480; format: in vivo, mice; conditions: SW480 (WT PIK3CA); AOA every day IP
Excerpt: as §1, §2

[12] = system: LOVO xenograft tumors; experiment: Xenograft study, LOVO; format: in vivo, mice; conditions: LOVO (WT PIK3CA); AOA every day IP
Excerpt: as §1, §2

[13] = Body weights of xenograft mice before and after AOA treatment; format: in vivo; conditions: xenograft mice treated with AOA
Excerpt: as §3, §2

[14] = biological target: T1, Recombinant GPT2 (Homo sapiens, UniProt Q8TD30); experiment: GPT2 enzymatic assay (colorimetric pyruvate detection); format: biochemical; conditions: recombinant GPT2 mixed with α-KG and alanine; read-out: IC50 of AOA to GPT2
T1 sequence (Q8TD30 1-523): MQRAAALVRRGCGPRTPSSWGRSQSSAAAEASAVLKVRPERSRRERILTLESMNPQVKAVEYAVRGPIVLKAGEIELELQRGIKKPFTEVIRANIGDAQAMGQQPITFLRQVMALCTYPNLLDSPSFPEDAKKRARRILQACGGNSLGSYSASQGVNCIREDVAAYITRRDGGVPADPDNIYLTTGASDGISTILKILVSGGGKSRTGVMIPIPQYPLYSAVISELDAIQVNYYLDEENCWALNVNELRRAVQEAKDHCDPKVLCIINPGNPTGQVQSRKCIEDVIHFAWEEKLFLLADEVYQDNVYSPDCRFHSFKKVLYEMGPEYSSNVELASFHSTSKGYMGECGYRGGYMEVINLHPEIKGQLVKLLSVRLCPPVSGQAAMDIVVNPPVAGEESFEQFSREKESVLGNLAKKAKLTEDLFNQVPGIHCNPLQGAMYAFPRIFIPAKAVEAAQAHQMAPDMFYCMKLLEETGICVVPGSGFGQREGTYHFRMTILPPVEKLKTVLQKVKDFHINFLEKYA
Description: (§5) FIGS. 11(A-C) illustrate plots and graph showing (A) enzyme kinetics of GPT2. Recombinant GPT2 was mixed with α-KG and alanine. The product pyruvate was detected by a colorimetric assay. (B) IC50 of AOA to GPT2. (C) Relative amounts of α-KG. Xenograft tumors were treated with 10 mg/kg of AOA or vehicle. α-KG in a untreated tumor was set as 100%.
(§6) However, AOA is pan-transaminase inhibitor.

[15] = system: GPT activity; experiment: GPT activity in treated xenograft tumors assayed by amounts of α-KG; format: in vivo, mice; conditions: Mus musculus, AOA 10 mg/kg
Description: as §5, §6

[16] = system: ATF4 protein levels in the HCT116 PIK3CA mutant clone; experiment: ATF4 protein levels after inhibitor exposure (immunoblot); format: cell-based; conditions: Western blot (FIG. 6C)
Description: Ubiquitination of endogenous ATF4 (A). Ubiquitination of ectopically expressed Flag-tagged ATF4 and HA-tagged ubiquitin (B).
Cells were lysed in RIPA buffer [10 mM Tris (pH 7.4), 150 mM NaCl, 5 mM EDTA (pH 8.0), 0.1% SDS, 1% Triton-X100, 1 mM DTT, 1 mM PMSF, complete Protease Inhibitor Cocktail tablet (Roche); supplemented with phosphatase inhibitors (1 mM Na3VO4, 50 mM NaF, 1 mM β-glycerophosphate, 20 mM sodium pyrophosphate)]. Lysates were then cleared by centrifugation at 14,000 rpm for 10 min and protein concentration in supernatants was determined by the BCA protein assay kit (Pierce). Equal amounts of total protein were used for immunoblotting. For immunoprecipitation (IP), cells were lysed as mentioned above. Cleaned cell lysate incubated with antibody for one hour, and then protein A and/or protein G for one hour. Protein A/G beads were washed with lysis buffer three times, and then boiled with SDS-loading buffer followed with immunoblotting.

[17] = HCT116 (PIK3CA mutant CRC) xenograft
[18] = single agent, HCT116 (PIK3CA mutant CRC) xenograft

Question: Which tumor regression [1, 17] does the source give for `O=c1[nH]cc(F)c(=O)[nH]1` [5-FU, 5-fluorouracil] here?
Answer: neither induced tumor regression

Question: And the xenograft tumor growth [1, 18]?
Answer: inhibited tumor growth to various extents

Question: What does the source list for `NOCC(=O)O` [AOA, aminooxyacetate]?
Answer: sensitivity to AOA treatment, PIK3CA mutant clones vs WT clones ([2]; HCT116 clones): more sensitive to AOA treatment than the WT clones; sensitivity to AOA treatment, PIK3CA mutant clones vs WT clones ([3]; DLD1 clones): more sensitive to AOA treatment than the WT clones; xenograft tumor growth [4]: significantly inhibited the growth; xenograft tumor growth [5]: significantly inhibited the growth; xenograft tumor growth [6]: had no effect; xenograft tumor growth [7]: had no effect; xenograft tumor growth ([1]; HCT116 parental cells (PIK3CA mutant), AOA every day IP): inhibited xenograft tumor growth; xenograft tumor growth [8]: inhibited xenograft tumor growth; xenograft tumor growth [9]: inhibited xenograft tumor growth; xenograft tumor growth [10]: inhibited xenograft tumor growth; xenograft tumor growth [11]: had no effect on xenograft tumor growth; xenograft tumor growth [12]: had no effect on xenograft tumor growth; weight loss of treated mice [13]: No weight loss was observed; IC50 [14]: 980 nM; inhibition at 10 mg/kg [15]: ~30%

Question: With `CC(C)CCN1c2nc(Nc3cc(F)c(O)c(F)c3)ncc2N(C)C(=O)C1C` (stereo not shown) [BI-D1870] as the compound, how does the ATF4 protein levels [16] read?
Answer: reduced ATF4 protein levels

Question: For `O=C(Cc1ccccc1)Nc1nnc(CCSCCc2nnc(NC(=O)Cc3ccccc3)s2)s1` [BPTES], which “sensitivity to growth inhibition, PIK3CA-/mut vs PIK3CA WT/- cells” value [2] is on record?
Answer: more sensitive to growth inhibition

Question: And the “sensitivity to growth inhibition, PIK3CA-/mut vs PIK3CA WT/- cells” value [3]?
Answer: more sensitive to growth inhibition

Question: Which results are given for `O=C(Cc1cccc(OC(F)(F)F)c1)Nc1ccc(CCCCc2nnc(NC(=O)Cc3ccccn3)s2)nn1` [CB-839]?
Answer: tumor regression [1, 17]: neither induced tumor regression; xenograft tumor growth [1, 18]: inhibited tumor growth to various extents

Question: For `Cn1c(=O)n(-c2ccc(C(C)(C)C#N)cc2)c2c3cc(-c4cnc5ccccc5c4)ccc3ncc21` [DEZ235], which ATF4 protein levels [16] is on record?
Answer: reduced ATF4 protein levels

Question: Which results are given for `O=C(O[C@@H]1Cc2c(O)cc(O)cc2O[C@@H]1c1cc(O)c(O)c(O)c1)c1cc(O)c(O)c(O)c1` [EGCG, Epigallocatechin gallate]?
Answer: sensitivity to growth inhibition, PIK3CA-/mut vs PIK3CA WT/- cells [2]: more sensitive to growth inhibition; sensitivity to growth inhibition, PIK3CA-/mut vs PIK3CA WT/- cells [3]: more sensitive to growth inhibition

Question: Which ATF4 protein levels [16] does the source give for `Cc1ccc(-c2c(C(=O)CF)n(CCCO)c3ncnc(N)c23)cc1` [FMK] here?
Answer: reduced ATF4 protein levels

Question: With `CCn1c(-c2nonc2N)nc2c(C#CC(C)(C)O)ncc(OC[C@H]3CCCNC3)c21` [GSK690693] as the compound, how does the ATF4 protein levels [16] read?
Answer: neither an AKT inhibitor (GSK690693) nor an inhibitor (CHIR-99021) of GSK3β(a known downstream effector of AKT) had any effect on ATF4 protein levels

Question: For `CNc1nc(-c2ccc3c(N)n[nH]c3c2)cc(N2C[C@@H](C(=O)NC3CCCCC3)CC[C@H]2C)n1` [GSK2334470], which ATF4 protein levels [16] is on record?
Answer: reduced ATF4 protein levels

Question: Which “combinational effect with AOA” value [1] does the source give for `CCc1c2c(nc3ccc(OC(=O)N4CCC(N5CCCCC5)CC4)cc13)-c1cc3c(c(=O)n1C2)COC(=O)[C@]3(O)CC` [irinotecan] here?
Answer: none of the other drug showed any combinational effect with AOA

Question: For `O=C1[O][Pt]2([NH][C@@H]3CCCC[C@H]3[NH]2)[O]C1=O` [oxaliplatin], which “combinational effect with AOA” value [1] is on record?
Answer: none of the other drug showed any combinational effect with AOA

Question: With `CNC(=O)c1cc(Oc2ccc(NC(=O)Nc3ccc(Cl)c(C(F)(F)F)c3)c(F)c2)ccn1` [regorafenib] as the compound, how does the “combinational effect with AOA” value [1] read?
Answer: none of the other drug showed any combinational effect with AOA
